Assay results reported in patent US20050107423A1, “Quinolone antibacterial agents” (priority 2003, published 2005).
In brackets after ≈: the same amount, converted by molar mass.

Experiments:
Assay in all cases: Antibacterial assay, microtitration MIC (Test A)
Format in all cases: cell-based
E. faecalis MGH-2 = conditions: Enterococcus faecalis, MGH2, Gram Positive Bacteria; strain MGH-2; read-out: Minimum Inhibitory Concentrations E. faecalis MGH-2
Outline: (§1)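 Read-out is the MIC, obtained through conventional microtitration testing of Gram-positive and Gram-negative organisms.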

S. aureus UC-76 = conditions: Staphylococcus aureus, UC76, Gram Positive Bacteria; strain UC-76; read-out: Minimum Inhibitory Concentrations S. aureus UC-76
Outline: as §1

S pyogenes C203 = conditions: Gram Positive Bacteria; strain C203; read-out: Minimum Inhibitory Concentrations S pyogenes C203
Outline: as §1

S. pneumo SV-1 = conditions: Gram Positive Bacteria; strain SV-1; read-out: Minimum Inhibitory Concentrations S. pneumo SV-1
Outline: as §1

| SMILES | MIC (E. faecalis MGH-2) | MIC (S. aureus UC-76) | MIC (S pyogenes C203) | MIC (S. pneumo SV-1) |
| --- | --- | --- | --- | --- |
| COCC(O)C1CN(c2c(F)cc3c(=O)c(C(=O)O)cn(C4CC4)c3c2C)CC1(C)C (centres unmarked) [drawing 435] | 0.25 µg/mL (≈ 0.578 µM) | 0.015 µg/mL (≈ 0.0347 µM) | 0.5 µg/mL (≈ 1.16 µM) | 0.25 µg/mL (≈ 0.578 µM) |
| COc1c(N2CCC(C(O)C3(O)CC3)C2)c(F)cc2c(=O)c(C(=O)O)cn(C3CC3)c12 (centres unmarked) [drawing 361] | 0.5 µg/mL (≈ 1.16 µM) | 0.015 µg/mL (≈ 0.0347 µM) | 0.25 µg/mL (≈ 0.578 µM) | 0.25 µg/mL (≈ 0.578 µM) |
| COc1c(N2C[C@@H](CO)[C@@H](CO)C2)c(F)c(N)c2c(=O)c(C(=O)O)cn(C3CC3)c12 [drawing 400] | 0.25 µg/mL (≈ 0.593 µM) | 0.008 µg/mL (≈ 0.019 µM) | 0.25 µg/mL (≈ 0.593 µM) | 0.125 µg/mL (≈ 0.297 µM) |
| COCC(O)C1CCN(c2c(F)cc3c(=O)c(C(=O)O)cn(C4CC4)c3c2C)C1 (centres unmarked) [drawing 370] | 1 µg/mL (≈ 2.47 µM) | 0.06 µg/mL (≈ 0.148 µM) | 1 µg/mL (≈ 2.47 µM) | 0.5 µg/mL (≈ 1.24 µM) |
| CCCOC[C@@H]1CN(c2c(F)cc3c(=O)c(C(=O)O)cn(C4CC4)c3c2C)C[C@@H]1CO [drawing 410] | 0.125 µg/mL (≈ 0.289 µM) | 0.004 µg/mL (≈ 0.00925 µM) | 0.125 µg/mL (≈ 0.289 µM) | 0.06 µg/mL (≈ 0.139 µM) |
| O=C(O)c1cn(C2CC2)c2c(Cl)c(N3C[C@@H](CO)[C@@H](CO)C3)c(F)cc2c1=O [drawing 401] | 0.125 µg/mL (≈ 0.304 µM) | 0.004 µg/mL (≈ 0.00974 µM) | 0.125 µg/mL (≈ 0.304 µM) | 0.125 µg/mL (≈ 0.304 µM) |
| COc1c(N2C[C@@H]3CC[C@@](O)(CO)[C@@H]3C2)c(F)cc2c(=O)c(C(=O)O)cn(C3CC3)c12 [drawing 460] | 0.25 µg/mL (≈ 0.578 µM) | 0.015 µg/mL (≈ 0.0347 µM) | 0.5 µg/mL (≈ 1.16 µM) | 0.25 µg/mL (≈ 0.578 µM) |
| Nc1nc(-n2cc(C(=O)O)c(=O)c3cc(F)c(N4C[C@@H](CO)[C@@H](CO)C4)c(Cl)c32)c(F)cc1F [drawing 402] | 2 µg/mL (≈ 4.01 µM) | 0.125 µg/mL (≈ 0.251 µM) | 0.5 µg/mL (≈ 1 µM) | 0.5 µg/mL (≈ 1 µM) |

Results, then the molecule that gave them:

| MIC (E. faecalis MGH-2) | MIC (S. aureus UC-76) | MIC (S pyogenes C203) | MIC (S. pneumo SV-1) | SMILES |
| --- | --- | --- | --- | --- |
| 0.125 µg/mL (≈ 0.3 µM) | 0.008 µg/mL (≈ 0.0192 µM) | 0.125 µg/mL (≈ 0.3 µM) | 0.125 µg/mL (≈ 0.3 µM) | Cc1c(N2CC(C(O)CO)C3(CC3)C2)c(F)cc2c(=O)c(C(=O)O)cn(C3CC3)c12 (centres unmarked) [drawing 431] |
| 0.06 µg/mL (≈ 0.143 µM) | 0.002 µg/mL (≈ 0.00478 µM) | 0.03 µg/mL (≈ 0.0717 µM) | 0.03 µg/mL (≈ 0.0717 µM) | Cc1c(N2C[C@@H](CCO)[C@@H](CCO)C2)c(F)cc2c(=O)c(C(=O)O)cn(C3CC3)c12 [drawing 414] |
| 0.06 µg/mL (≈ 0.154 µM) | 0.004 µg/mL (≈ 0.0102 µM) | 0.06 µg/mL (≈ 0.154 µM) | 0.06 µg/mL (≈ 0.154 µM) | Cc1c(N2C[C@@H](CO)[C@@H](CO)C2)c(F)cc2c(=O)c(C(=O)O)cn(C3CC3)c12 [drawing 405] |
| 0.06 µg/mL (≈ 0.154 µM) | 0.002 µg/mL (≈ 0.00515 µM) | 0.06 µg/mL (≈ 0.154 µM) | 0.03 µg/mL (≈ 0.0772 µM) | Cc1c(N2CC(CO)C(C)(C)C2)c(F)cc2c(=O)c(C(=O)O)cn(C3CC3)c12 (centres unmarked) [drawing 427] |
| 0.03 µg/mL (≈ 0.0738 µM) | 0.002 µg/mL (≈ 0.00492 µM) | 0.03 µg/mL (≈ 0.0738 µM) | 0.03 µg/mL (≈ 0.0738 µM) | COc1c(N2CCC(C(O)CO)C2)c(F)cc2c(=O)c(C(=O)O)cn(C3CC3)c12 (centres unmarked) [drawing 355] |
| 0.06 µg/mL (≈ 0.155 µM) | 0.004 µg/mL (≈ 0.0104 µM) | 0.06 µg/mL (≈ 0.155 µM) | 0.03 µg/mL (≈ 0.0776 µM) | Cc1c(N2C[C@@H]3CC[C@@H](O)[C@@H]3C2)c(F)cc2c(=O)c(C(=O)O)cn(C3CC3)c12 [drawing 453] |
| 0.06 µg/mL (≈ 0.155 µM) | 0.004 µg/mL (≈ 0.0104 µM) | 0.06 µg/mL (≈ 0.155 µM) | 0.06 µg/mL (≈ 0.155 µM) | Cc1c(N2CC(CO)C3(CC3)C2)c(F)cc2c(=O)c(C(=O)O)cn(C3CC3)c12 (centres unmarked) [drawing 428] |
| 0.06 µg/mL (≈ 0.159 µM) | 0.00403 µg/mL (≈ 0.0107 µM) | 0.06 µg/mL (≈ 0.159 µM) | 0.06 µg/mL (≈ 0.159 µM) | COc1c(N2CCC(CO)C2)c(F)cc2c(=O)c(C(=O)O)cn(C3CC3)c12 (centres unmarked) [drawing 342] |
| 0.03 µg/mL (≈ 0.0714 µM) | 0.004 µg/mL (≈ 0.00951 µM) | 0.06 µg/mL (≈ 0.143 µM) | 0.03 µg/mL (≈ 0.0714 µM) | COc1c(N2CCC(C(CO)CO)C2)c(F)cc2c(=O)c(C(=O)O)cn(C3CC3)c12 (centres unmarked) [drawing 340] |
